Test results from patent US4173702A, “7-(5-Amino-5-carboxyvaler-amido)-3-(carbamoyloxymethyl)-7-methoxy-3-cep hem-4-carboxylic acid” (Eli Lilly and Company, priority 1970, dated 1979).
Where two headings read alike, the source gives them in different places.

Experiments:
[1] = tested on: Ascaris lumbricoides var. suum; assay: medicated feed, mice infected with Ascaris ova, lung lesions; format: in vivo; conditions: Example 13, mice, 0.05 percent in diet; control 2.66
Source text: The feeds were utilized as diets for separate groups of mice, five mice per group. Above twelve hours after initiation of the feeding, the mice were infected with Ascaris lumbricoides var. suum ova. Another group of five mice were fed the non-medicated feed to serve as a control but was similarly infected at the same time with Ascaris lumbricoides var. suum. All groups were fed their respective feed and maintained under normal laboratory conditions for a period of eight days, at which time all mice were taken off feed. On the ninth day, all mice were sacrificed and the lungs examined to determine the presence, and if present, numbers, of lesions of Ascaris lumbricoides var. suum.
Another evaluation was conducted under the procedures reported in Example 11, except that the rates were varied. The results were as follows:
In a further evaluation, the monoammonium salts of A16886I and A16886II were separately evaluated for the control of Ascaris lumbricoides var. suum. The evaluations were conducted in accordance with the procedure reported in Example 11 at a concentration in the diet of 0.05 percent.

[2] = solubility; format: physicochemical
[3] = tested on: Pseudomonas solanacearum; format: in vivo; conditions: 0 no control, 4 complete control
[4] = tested on: tomato plants; assay: field trial, crop injury; format: in vivo; conditions: 0=no injury, 10=dead plants
Experimental: (§1) A mixture of the monoammonium salt of A16886I and the monoammonium salt of A16886II was tested under field conditions for the control of Xanthomonas vesicatoria (bacterial spot) on mature bearing tomato plants. The mixture of the two salts was dispersed in water at a concentration of 100, 200, or 400 parts per million and applied to the plants at the rate of 75 gallons per acre. Application was made with a CO2 sprayer at 50 psi. Plants were sprayed twice, on successive days; after the second spray had dried, all plants were wounded by sand blasting and then within one minute the plants were inoculated with a bacterial inoculum of Xanthomonas vesicatoria. Three days later, a third spray application of the aqueous formulation of A16886 was made. Readings were made one week and two weeks after the last spray treatment. Controls consisted of groups of plants (1) sand blasted and inoculated; (2) sand blasted only; (3) untreated; and (4) treated with streptomycin (on the same three-day spraying schedule, at a concentration of 100, 200, or 400 parts per million of aqueous solution, using a rate of 75 gallons per acre), sand blasted, and inoculated. The results were as set forth in the following table, in which crop injury is reported on a scale of 0-10, with 0=no injury and 10=dead plants; and control of bacterial spot is reported on a percentage basis.

[5] = tested on: Xanthomonas vesicatoria; assay: field trial, bacterial spot control on tomato plants; format: in vivo
Experimental: as §1

[6] = in acetonitrile and other organic solvents

In the case of `COC1(NC(=O)CCCC(N)C(=O)O)C(=O)N2C(C(=O)O)=C(COC(N)=O)CS[C@@H]21` (stereo partly drawn) [A16886I, 7-(5-amino-5-carboxyvaleramido)-3-(carbamoyloxymethyl)-7-methoxy-3-cephem-4-carboxylic acid], the “Average Number of Lung Lesions Per Group” value [1] is reported as 0.46, the solubility [2, 6] is reported as “essentially insoluble” and the solubility ([2]; in lower alkanols) is reported as “slightly soluble”. The solubility ([2]; in water) was “very soluble”, the “Disease Rating” value ([3]; Example 7, 10 ppm.) was 2 and the “Disease Rating” value ([3]; Example 7, 100 ppm.) was 4. For the same compound, the rating ([3]; Example 8, 100 ppm.) was 4, the rating ([3]; Example 8, 200 ppm.) was 4 and the rating ([3]; Example 8, 400 ppm.) was 4.
For `NC(=O)OCC1=C(C(=O)O)N2C(=O)C(NC(=O)CCCC(N)C(=O)O)[C@H]2SC1` (stereo partly drawn) [A16886II, 7-(5-amino-5-carboxyvaleramido)-3-(carbamoyloxymethyl)-3-cephem-4-carboxylic acid], the “Average Number of Lung Lesions Per Group” value [1] was 0.20, the solubility [2, 6] was “essentially insoluble” and the solubility ([2]; in lower alkanols) was “slightly soluble”. The solubility ([2]; in water) was “very soluble”, the “Disease Rating” value ([3]; Example 7, 10 ppm.) was 1 and the “Disease Rating” value ([3]; Example 7, 100 ppm.) was 4.
For `[H]/N=C(/N)N[C@H]1[C@H](O)[C@@H](O)[C@H](O[C@@H]2O[C@@H](C)[C@](O)(C=O)[C@H]2O[C@@H]2O[C@@H](CO)[C@H](O)[C@@H](O)[C@@H]2NC)[C@@H](N/C(N)=N\[H])[C@@H]1O` [Streptomycin], the “Crop Injury Ratings” value ([4]; 100 ppm, First Reading) was 0, the “Crop Injury Ratings” value ([4]; 100 ppm, Second Reading) was 0 and the “Crop Injury Ratings” value ([4]; 200 ppm, First Reading) was 0. For the same compound, the “Crop Injury Ratings” value ([4]; 200 ppm, Second Reading) was 0, the “Crop Injury Ratings” value ([4]; 400 ppm, First Reading) was 0 and the “Crop Injury Ratings” value ([4]; 400 ppm, Second Reading) was 0. For the same compound, the “Percent Bacterial Spot Control” value ([5]; 100 ppm, First Reading) was 83%, the “Percent Bacterial Spot Control” value ([5]; 100 ppm, Second Reading) was 57% and the “Percent Bacterial Spot Control” value ([5]; 200 ppm, First Reading) was 81%. The “Percent Bacterial Spot Control” value ([5]; 200 ppm, Second Reading) was 37%, the “Percent Bacterial Spot Control” value ([5]; 400 ppm, First Reading) was 83% and the “Percent Bacterial Spot Control” value ([5]; 400 ppm, Second Reading) was 59%.
